± gives the expanded uncertainty stated by the source.
Experiments:
[1] = 101 kPa, Liquid
[2] = xn = mol fraction of the nth substance listed; conditions: 101 kPa, Liquid, x2 = 0

mass density ([1]; 298.15 K) [kg/m3] | viscosity ([1]; 298.15 K) [mPa·s] | mass density ([1]; 303.15 K) [kg/m3] | viscosity ([1]; 303.15 K) [mPa·s] | mass density ([1]; 308.15 K) [kg/m3] | viscosity ([1]; 308.15 K) [mPa·s] | mass density ([1]; 313.15 K) [kg/m3] | viscosity ([1]; 313.15 K) [mPa·s] | mass density ([1]; 318.15 K) [kg/m3] | viscosity ([1]; 318.15 K) [mPa·s] | viscosity ([2]; 298.15 K) [mPa·s] | viscosity ([2]; 303.15 K) [mPa·s] | viscosity ([2]; 308.15 K) [mPa·s] | viscosity ([2]; 313.15 K) [mPa·s] | viscosity ([2]; 318.15 K) [mPa·s] | Structure (SMILES)
1096.29 ± 0.28 | 1.996 ± 0.024 | 1091.44 ± 0.28 | 1.836 ± 0.022 | 1086.41 ± 0.27 | 1.669 ± 0.02 | 1081.59 ± 0.26 | 1.535 ± 0.019 | 1076.46 ± 0.25 | 1.393 ± 0.017 |  |  |  |  |  | C[S+](C)[O-] [dimethyl sulfoxide]
 |  |  |  |  |  |  |  |  |  | 0.8901 ± 0.012 | 0.7973 ± 0.011 | 0.7193 ± 0.0098 | 0.653 ± 0.009 | 0.5961 ± 0.0083 | O [water] + C[S+](C)[O-]

Source: the NIST ThermoML archive (doi:10.1016/j.jct.2006.12.012)
